# Data taken from ChEMBL document CHEMBL5050850, “Compositions and methods of using the same for treatment of neurodegenerative and mitochondrial disease” (2020).
# Active and inactive are the calls of the source. The calls are words filed in the database; no cut-off is given here.
# Assays:
# HeLa [1] = experiment: Cytotoxicity against human HeLa MKYP cells assessed as percentage of DAPI-positive cells at 50 uM and measured by DAPI staining method; format: toxicity, cell-based
# [2] = Induction of mitophagy in human HeLa MKYP cells treated at 6.3 uM with FCCP/oligomycin for 6 hrs and measured by FACS analysis relative to control; format: functional
# HeLa [3] = experiment: Cytotoxicity against human HeLa MKYP cells assessed as cell death at 25 uM and measured DAPI staining method assay relative to control; format: toxicity, cell-based
# [4] = Induction of mitophagy in human HeLa MKYP cells treated with FCCP/oligomycin for 6 hrs and measured by FACS analysis; format: functional, cell-based
# [5] = Ratio of highest compound concentration with no observable mitotoxicity to EC50 of compound to induce mitophagy in human HeLa MKYP cells; format: functional
# HeLa [6] = experiment: Cytotoxicity against human HeLa MKYP cells assessed as cell death at 25 uM treated with FCCP/oliogmycin and measured DAPI staining method assay relative to control; format: toxicity, cell-based
# [7] = Solubility of compound in PBS; format: physicochemical
# [8] = molecular target: Serine/threonine-protein kinase PINK1, mitochondrial (Homo sapiens) (UniProt Q9BXM7); experiment: Activation of PINK1 in human HeLa MKYP PINK1-knock out cells at 3.125 to 6.25 uM assessed as reduction in pS129 alpha-synuclein; format: cell-based; details: dose 3.125-6.25 µM
# Serine/threonine-protein kinase PINK1, mitochondrial (Homo sapiens), sequence (Q9BXM7 whole entry, the tested form may be a part): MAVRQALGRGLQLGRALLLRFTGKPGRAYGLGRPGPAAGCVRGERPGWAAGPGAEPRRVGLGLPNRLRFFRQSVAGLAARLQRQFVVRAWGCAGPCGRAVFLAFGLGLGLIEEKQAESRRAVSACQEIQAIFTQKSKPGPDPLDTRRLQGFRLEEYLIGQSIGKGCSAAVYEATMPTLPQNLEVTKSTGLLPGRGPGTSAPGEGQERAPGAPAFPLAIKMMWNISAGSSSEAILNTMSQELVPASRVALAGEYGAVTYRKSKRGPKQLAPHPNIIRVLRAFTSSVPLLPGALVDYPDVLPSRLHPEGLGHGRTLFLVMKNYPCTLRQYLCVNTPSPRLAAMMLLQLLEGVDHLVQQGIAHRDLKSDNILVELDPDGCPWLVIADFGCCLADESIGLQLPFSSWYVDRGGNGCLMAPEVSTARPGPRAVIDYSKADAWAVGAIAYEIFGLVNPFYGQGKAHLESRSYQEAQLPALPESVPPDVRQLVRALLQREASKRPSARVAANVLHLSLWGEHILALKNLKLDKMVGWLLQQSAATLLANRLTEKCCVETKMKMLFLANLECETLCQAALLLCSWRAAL
# Mus musculus [9] = experiment: Protection against cisplatin-induced mitochondrial dysfunction in mouse assessed as decrease in GDF15 expression at 20 to 50 mg/kg, po administered daily; format: functional, organism-based; details: dose 20-50 mg/kg
# HeLa [10] = experiment: Induction of mitophagy in human HeLa MKYP PINK1-knockout cells treated with FCCP/oligomycin for 6 hrs and measured by FACS analysis; format: functional, cell-based
# HeLa [11] = experiment: Induction of mitophagy in human HeLa MKYP cells expressing wild-type PNIK1 treated with FCCP/oligomycin for 6 hrs and measured by FACS analysis; format: functional, cell-based
# Mus musculus [12] = experiment: Protection against preformed alpha-synuclein amyloid fibril (PFF) in C57BL/6 mouse model assessed as decrease in pS129 monomer of alpha-synuclein in ipsilateral striatum at 5 to 50 mg/kg, po administered daily for 28 days; format: functional, organism-based; details: dose 5-50 mg/kg, time 28.0 day
# [13] = molecular target: Serine/threonine-protein kinase PINK1, mitochondrial (Homo sapiens) (UniProt Q9BXM7); experiment: Activation of PINK1 in human HeLa MKYP cells expressing PINK1 treated with FCCP/oilgomycin assessed as increase in parkin recruitment and measured by ELISA assay; format: cell-based; details: filed as activator
# [14] = molecular target: Serine/threonine-protein kinase PINK1, mitochondrial (Homo sapiens) (UniProt Q9BXM7); experiment: Activation of PINK1 in human iPSC derived neurons at 3.1 to 6.2 uM assessed as reduction in pS129 alpha-synuclein; format: cell-based; details: Neuron, filed as activator, dose 3.1-6.2 µM
# Mus musculus [15] = experiment: Protection against preformed alpha-synuclein amyloid fibril (PFF) in C57BL/6 mouse model assessed as decrease in C-terminal truncation of alpha-synuclein in ipsilateral striatum at 5 to 50 mg/kg, po administered daily for 28 days; format: functional, organism-based; details: dose 5-50 mg/kg, time 28.0 day
# Mus musculus [16] = experiment: Protection against preformed alpha-synuclein amyloid fibril (PFF) in C57BL/6 mouse model assessed as decrease in all species of alpha-synuclein in ipsilateral striatum at 5 to 50 mg/kg, po administered daily for 28 days; format: functional, organism-based; details: dose 5-50 mg/kg, time 28.0 day
# [17] = molecular target: Serine/threonine-protein kinase PINK1, mitochondrial (Homo sapiens) (UniProt Q9BXM7); experiment: Activation of PINK1 in human HeLa MKYP PINK1-knock out cells treated with FCCP/oilgomycin assessed as increase in parkin recruitment and measured by ELISA assay; format: cell-based
# Mus musculus [18] = experiment: Protection against preformed alpha-synuclein amyloid fibril (PFF) in C57BL/6 mouse model assessed as decrease in all species of alpha-synuclein in contralateral striatum at 5 to 50 mg/kg, po administered daily for 28 days; format: functional, organism-based; details: dose 5-50 mg/kg, time 28.0 day
# [19] = molecular target: Serine/threonine-protein kinase PINK1, mitochondrial (Homo sapiens) (UniProt Q9BXM7); experiment: Activation of PINK1 in human HeLa MKYP cells expressing PINK1 treated with FCCP/oilgomycin assessed as increase in pS65 Ub and measured by ELISA assay; format: cell-based; details: filed as activator
# Mus musculus [20] = experiment: Protection against preformed alpha-synuclein amyloid fibril (PFF) in C57BL/6 mouse model assessed as decrease in total monomer of alpha-synuclein in ipsilateral striatum at 5 to 50 mg/kg, po administered daily for 28 days; format: functional, organism-based; details: dose 5-50 mg/kg, time 28.0 day
# Mus musculus [21] = experiment: Protection against preformed alpha-synuclein amyloid fibril (PFF) in C57BL/6 mouse model assessed as decrease in all species of alpha-synuclein in ventral midbrain at 5 to 50 mg/kg, po administered daily for 28 days; format: functional, organism-based; details: dose 5-50 mg/kg, time 28.0 day
# [22] = molecular target: Serine/threonine-protein kinase PINK1, mitochondrial (Homo sapiens) (UniProt Q9BXM7); experiment: Activation of PINK1 in human HeLa cells stably expressing YFP parkin assessed as reduction in dOTC protein accumulation and measured by ornithine carbamoyltransferase (DOTC) assay relative to control; format: cell-based; details: filed as activator
# [23] = molecular target: Serine/threonine-protein kinase PINK1, mitochondrial (Homo sapiens) (UniProt Q9BXM7); experiment: Activation of PINK1 in human HeLa MKYP PINK1-knock out cells treated with FCCP/oilgomycin assessed as increase in pS65 Ub and measured by ELISA assay; format: cell-based
Structure (SMILES),Activity (HeLa [1]),Activity [2],Activity (HeLa [3]),EC50 [4],Ratio [5],Activity (HeLa [6]),other results
CC(Nc1ncnc2[nH]c(C(F)(F)F)cc12)c1ccccc1 (stereo not given),2.4%,88.4%,–,–,–,–,–
CN1CC[C@H](Nc2ncnc3[nH]c(C(F)(F)F)cc23)c2ccccc21,59%,–,2.51%,1330 nM,30,16%,–
CCCCNc1ncnc2[nH]c(CC(F)(F)F)cc12,24.8%,13.9%,–,–,–,–,–
N#Cc1cccc2c1CCCC2Nc1ncnc2[nH]c(C(F)(F)F)cc12 (stereo not given),71.2%,–,57.1%,2980 nM,8.39,71.2%,solubility [7]: 1 µM
CC(C)(Nc1ncnc2[nH]c(C(F)(F)F)cc12)c1ccccc1,5.6%,17%,–,–,–,–,–
c1ccc2c(c1)CCC[C@H]2Nc1ncnc2[nH]c(C3CC3)cc12,16.6%,–,9.32%,470 nM,53.2,14.9%,solubility [7]: 1 µM
OC[C@@H]1CCc2ccccc2[C@H]1Nc1ncnc2[nH]c(C(F)(F)F)cc12,59.5%,–,27%,1100 nM,7.25,59.535%,–
FC(F)(F)c1cc2c(NC3CCCc4ccccc43)ncnc2[nH]1 (stereo in doubt),–,–,–,–,–,–,Activity [8]: inactive; Activity (Mus musculus [9]): Active; Activity (HeLa [10]): inactive; Activity (HeLa [11]): Active; Activity (Mus musculus [12]): Active; Activity [13]: Active; Activity [14]: Active; Activity (Mus musculus [15]): Active; Activity (Mus musculus [16]): Active; Activity [17]: inactive; Activity (Mus musculus [18]): Active; Activity [19]: Active; Activity (Mus musculus [20]): Active; Activity (Mus musculus [21]): Active; Activity [22]: Active; Activity [23]: inactive
FC(F)(F)c1cc2c(NCc3ccccc3)ncnc2[nH]1,50.4%,35.1%,–,–,–,–,–
CCCCNc1ncnc2[nH]c(CC)cc12,93.4%,14%,–,–,–,–,–
O[C@H]1Cc2ccccc2[C@@H]1Nc1ncnc2[nH]c(C(F)(F)F)cc12,14.4%,–,2.51%,18500 nM,1.35,14.4%,–
CC[C@@H]1CCc2ccccc2[C@@H]1Nc1ncnc2[nH]c(C(F)(F)F)cc12,8.7%,–,5.04%,1800 nM,13.8,8.735%,–
CCCCNc1ncnc2[nH]c(C)cc12,15.4%,43.4%,–,–,–,–,–
CO[C@@H]1COc2ccccc2[C@@H]1Nc1ncnc2[nH]c(C(F)(F)F)cc12,12.1%,–,3.4%,1600 nM,–,12.11%,–
Fc1ccc2c(c1)CCCC2Nc1ncnc2[nH]c(C(F)(F)F)cc12 (stereo not given),30.1%,–,3.27%,1060 nM,–,30.1%,solubility [7]: 1 µM
FC(F)(F)c1cc2c(NC3(c4ccccc4)CC3)ncnc2[nH]1,80.5%,20.8%,–,–,–,–,–
C[C@@H]1CCc2ccccc2[C@H]1Nc1ncnc2[nH]c(C(F)(F)F)cc12,23.8%,–,17.9%,4180 nM,–,23.8%,solubility [7]: 1 µM
FC(F)(F)c1cc2c(NC3CCc4ccccc43)ncnc2[nH]1 (stereo in doubt; 17),2.3%,–,–,–,–,–,"Activity ([2]; 6 h, 6.3 µM): 14.8%"
FC(F)(F)c1cc2c(NC3COc4ccccc43)ncnc2[nH]1 (stereo not given),39.7%,52.5%,–,–,–,–,–
